Experimental data taken from ChEMBL document CHEMBL3045406, “Enantioselective Relieving Activity of α-Methylbenzylphenylureas toward Bensulfuron-methyl Injury to Rice (Oryza sativa)” (Biosci Biotechnol Biochem, 1999).

Experiments:
[1] = tested on: Oryza sativa; assay: Relieving activity against bensulfuron-methyl induced injury to Oryza sativa (rice) assessed as growth rate at 0.1 uM (Rbv = 46 to 53%); format: functional
[2] = Hydrophobicity, log K of the compound; format: physicochemical; details: octanol/water
[3] = tested on: Oryza sativa; assay: Effect on Oryza sativa (rice) assessed as growth rate at 0.1 uM relative to control; format: organism-based; details: in vivo
[4] = tested on: Oryza sativa; assay: Safener indices, ratio of compound effect of Oryza sativa (rice) growth rate to relieving activity against bensulfuron-methyl induced injury to Oryza sativa growth rate at 10 uM
[5] = tested on: Oryza sativa; assay: Effect on Oryza sativa (rice) assessed as growth rate at 10 uM relative to control; format: organism-based; details: in vivo
[6] = tested on: Oryza sativa; assay: Relieving activity against bensulfuron-methyl induced injury to Oryza sativa (rice) assessed as growth rate at 10 uM (Rbv = 46 to 53%); format: functional
[7] = tested on: Oryza sativa; assay: Safener indices, ratio of compound effect of Oryza sativa (rice) growth rate to relieving activity against bensulfuron-methyl induced injury to Oryza sativa growth rate at 1 uM
[8] = tested on: Oryza sativa; assay: Relieving activity against bensulfuron-methyl induced injury to Oryza sativa (rice) assessed as growth rate at 1 uM (Rbv = 46 to 53%); format: functional
[9] = tested on: Oryza sativa; assay: Safener indices, ratio of compound effect of Oryza sativa (rice) growth rate to relieving activity against bensulfuron-methyl induced injury to Oryza sativa growth rate at 0.1 uM
[10] = tested on: Oryza sativa; assay: Effect on Oryza sativa (rice) assessed as growth rate at 1 uM relative to control; format: organism-based; details: in vivo

Row | Structure (SMILES) | Activity [1] [%] | log K [2] | Activity [3] [%] | Ratio [4] | Activity [5] [%] | Activity [6] [%] | Ratio [7] | Activity [8] [%] | Ratio [9] | Activity [10] [%]
1 | C[C@@H](NC(=O)Nc1ccc(I)cc1)c1ccccc1 | 69 | 0.556 | 100 | 63 | 85 | 79 | 58 | 78 | 35 | 91
2 | COc1cccc(NC(=O)N[C@@H](C)c2ccccc2)c1 | 65 | 0.277 | 101 | 94 | 99 | 97 | 70 | 86 | 22 | 99
3 | CCc1ccc(NC(=O)N[C@H](C)c2ccccc2)cc1 | 56 | 0.487 | 95 | 32 | 44 | 47 | 24 | 43 | 15 | 47
4 | C[C@H](NC(=O)Nc1ccccc1Cl)c1ccccc1 | 75 | 0.486 | 99 | 95 | 106 | 98 | 80 | 91 | 50 | 104
5 | C[C@@H](NC(=O)Nc1ccc(Cl)cc1)c1ccccc1 | 50 | 0.439 | 96 | 71 | 87 | 84 | 61 | 80 | 1 | 95
6 | C[C@@H](NC(=O)Nc1ccccc1)c1ccccc1 | 56 | 0.28 | 101 | 60 | 79 | 77 | 36 | 69 | 7 | 98
7 | C[C@@H](NC(=O)Nc1ccccc1I)c1ccccc1 | 61 | 0.502 | 100 | 69 | 96 | 84 | 34 | 68 | 19 | 100
8 | C[C@@H](NC(=O)Nc1cccc(Cl)c1)c1ccccc1 | 50 | 0.47 | 97 | 32 | 83 | 61 | 19 | 57 | -2 | 91
9 | CCCCCc1ccc(NC(=O)N[C@@H](C)c2ccccc2)cc1 | 55 | 0.912 | 98 | 43 | 93 | 71 | 16 | 59 | 9 | 98
10 | C[C@H](NC(=O)Nc1cc(Cl)ccc1Cl)c1ccccc1 | 79 | 0.704 | 100 | 82 | 100 | 91 | 69 | 85 | 56 | 99
11 | CCOC(=O)c1cccc(NC(=O)N[C@@H](C)c2ccccc2)c1 | 72 | 0.419 | 100 | 89 | 96 | 95 | 70 | 85 | 44 | 99
12 | COc1cccc(NC(=O)N[C@H](C)c2ccccc2)c1 | 54 | 0.277 | 104 | 57 | 70 | 73 | 27 | 63 | -5 | 92
13 | C[C@@H](NC(=O)Nc1c(F)cccc1F)c1ccccc1 | 51 | 0.238 | 100 | 42 | 98 | 71 | 8 | 54 | 2 | 100
14 | C[C@@H](NC(=O)Nc1ccc(Cl)cc1Cl)c1ccccc1 | 61 | 0.688 | 101 | 47 | 100 | 75 | 29 | 65 | 20 | 99
15 | C[C@H](NC(=O)Nc1ccc(C(C)(C)C)cc1)c1ccccc1 | 52 | 0.673 | 100 | 53 | 64 | 68 | 37 | 65 | 4 | 88
16 | Cc1ccccc1NC(=O)N[C@@H](C)c1ccccc1 | 52 | 0.337 | 100 | 58 | 99 | 79 | 21 | 60 | 5 | 99
